Publication PMC7774954, “Interactomic affinity profiling by holdup assay: Acetylation and distal residues impact the PDZome-binding specificity of PTEN phosphatase” (PLoS ONE, 2020)
*1 amine or outer side, *2 acyl side, *3 side chain or, on linkers, in order; H or OH if unused. Where a SMILES comes first, the peptide text is derived from it. The star is where a group is joined. X1 = O=C(CCCC[C@@H]1SC[C@@H]2NC(=O)N[C@@H]21)NCCCOCCOCCOCCCN*; Suc = O=C(CCC(=O)[*:2])[*:1]

Assays:
[1] = target: T1, MAST1 PDZ 1 (Homo sapiens, UniProt Q9Y2H9); assay: Holdup assay, MAST1-1; format: binding
T1 construct: made in house; host or cells: E. coli
T1 sequence (Q9Y2H9 967-1055 limits assumed): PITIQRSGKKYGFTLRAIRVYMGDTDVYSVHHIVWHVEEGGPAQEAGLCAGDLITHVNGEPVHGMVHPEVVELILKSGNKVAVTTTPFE
Method: (§1) The holdup assay was performed on a Tecan freedom Evo200 robot with 384-well plates in singlicate for the three 11-mer PTEN variants and the 13-mer PTEN peptide as described in [31, 32]. Briefly, prior to interaction assay, 2.5 μL of streptavidin resin was saturated in each well with 20 μL of biotinylated PBM peptides (42 μM) and then washed twice with an excess of free biotin, while the reference resin was incubated only with biotin. Right before the holdup experiment, the PDZ library was spiked with an internal standard of lysozyme. Then, the biotin- or PBM-saturated resin was incubated, each in a distinct well of a 384-well plate, with complete cell lysates diluted so that the concentration of the tag-PDZ present in the crude extract is adjusted at 4 μM. After a sufficient time to reach complex equilibrium (15 min.), a fast and mild filtration step is performed and the tag-PDZ concentrations were measured by capillary electrophoresis instrument (LabChip GXII, PerkinElmer, Massachusets, USA). Standard markers were used to convert migration time into molecular weight on the LabChip software and inappropriate molecular weight markers were corrected or excluded.
(§2) For filtered data, the BI was extracted with the following equation (Eq 1) that estimates the depleted fraction after superimposition of the sample and reference electropherograms: BI=Iref−Ilig/Iref (1) where Iref and Ilig are the intensities of the tag-PDZ peaks measured, for each PDZ domain/PBM peptide interaction pair, in the biotin reference and the PBM electropherograms, respectively.
(§3) BIs were transformed into dissociation constants (KD) using the following formula: KD=([PDZtot]−BI·[PDZtot])·([PBMtot]−BI·[PDZtot])/BI·[PDZtot] (2) where [PDZtot] and [PBMtot] correspond to the total concentrations of the PDZ domain (usually around 4 μM) and the PBM peptide used during the assay. Since the PBMtot concentration in the resin during the holdup assay parameter may differ from one peptide to another and remains unknown, it is impossible to directly convert BI values into KD constants. We systematically determined the KD constants for a subset of PDZ/PBM pairs by competitive FP. […] For each PBM, the average peptide concentration was calculated after outlier rejection based on the absolute distances from the median as compared to three times the standard deviation (3σ rule), with never more than 2 values rejected.

[2] = target: T2, NHERF2 PDZ 1 (Homo sapiens, UniProt Q15599); assay: Holdup assay, NHERF2-1; format: binding; settings: PDZ domain NHERF2-1
T2 construct: made in house; host or cells: E. coli
T2 sequence (Q15599 11-90 limits assumed): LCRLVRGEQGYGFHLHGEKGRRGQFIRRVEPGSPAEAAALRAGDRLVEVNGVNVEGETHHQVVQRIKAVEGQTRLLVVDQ
Method: as §1, §2, §3

[3] = target: T3, NHERF2 PDZ 2 (Homo sapiens, UniProt Q15599); assay: Holdup assay, NHERF2-2; format: binding; settings: PDZ domain NHERF2-2 (gene MPDZ, 9)
T3 construct: made in house; host or cells: E. coli
T3 sequence (Q15599 150-230 limits assumed): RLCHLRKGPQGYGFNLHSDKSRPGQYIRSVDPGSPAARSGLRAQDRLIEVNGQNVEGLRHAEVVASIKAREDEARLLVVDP
Method: as §1, §2, §3

[4] = target: T4, PARD3 PDZ 3 (Homo sapiens, UniProt Q8TEW0); assay: Holdup assay, PARD3-3; format: binding
T4 construct: made in house; host or cells: E. coli
T4 sequence (Q8TEW0 590-677 limits assumed): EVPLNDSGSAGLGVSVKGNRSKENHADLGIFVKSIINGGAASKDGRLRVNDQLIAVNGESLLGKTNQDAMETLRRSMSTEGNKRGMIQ
Method: as §1, §2, §3

[5] = target: T5, SNX27 PDZ 1 (Homo sapiens, UniProt Q96L92); assay: Holdup assay, SNX27-1; format: binding
T5 construct: made in house; host or cells: E. coli
Method: as §1, §2, §3

[6] = target: T6, ARHGEF11-1 (Homo sapiens, UniProt O15085); assay: Holdup assay, ARHGEF11-1; format: binding
T6 sequence (O15085 47-126): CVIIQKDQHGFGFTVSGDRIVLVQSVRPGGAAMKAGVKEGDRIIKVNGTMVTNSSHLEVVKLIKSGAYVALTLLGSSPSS

[7] = test system: DLG1-3; assay: Holdup assay, DLG1-3; format: binding, human
[8] = test system: DLG3-1; assay: Holdup assay, DLG3-1; format: binding, human
[9] = target: DLG4-2 (Homo sapiens, UniProt P78352); assay: Holdup assay, DLG4-2; format: binding
Sequence of DLG4-2 (P78352 160-246): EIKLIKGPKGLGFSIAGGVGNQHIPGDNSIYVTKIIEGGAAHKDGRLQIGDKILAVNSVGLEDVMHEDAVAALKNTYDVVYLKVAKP

[10] = test system: DLG5-3; assay: Holdup assay, DLG5-3; format: binding, human
[11] = test system: FRMPD4-1; assay: Holdup assay, FRMPD4-1; format: binding, human
[12] = test system: GRIP1-4; assay: Holdup assay, GRIP1-4; format: binding, human
[13] = test system: GRIP2-1; assay: Holdup assay, GRIP2-1; format: binding, human
[14] = test system: GRIP2-7; assay: Holdup assay, GRIP2-7; format: binding, human
[15] = test system: HTRA2-1; assay: Holdup assay, HTRA2-1; format: binding, human
[16] = test system: IL16-1; assay: Holdup assay, IL16-1; format: binding, human
[17] = test system: IL16-2; assay: Holdup assay, IL16-2; format: binding, human
[18] = test system: INADL-2; assay: Holdup assay, INADL-2; format: binding, human
[19] = test system: INADL-3; assay: Holdup assay, INADL-3; format: binding, human
[20] = target: INADL-8 (Homo sapiens, UniProt Q8NI35); assay: Holdup assay, INADL-8; format: binding
Sequence of INADL-8 (Q8NI35 whole entry): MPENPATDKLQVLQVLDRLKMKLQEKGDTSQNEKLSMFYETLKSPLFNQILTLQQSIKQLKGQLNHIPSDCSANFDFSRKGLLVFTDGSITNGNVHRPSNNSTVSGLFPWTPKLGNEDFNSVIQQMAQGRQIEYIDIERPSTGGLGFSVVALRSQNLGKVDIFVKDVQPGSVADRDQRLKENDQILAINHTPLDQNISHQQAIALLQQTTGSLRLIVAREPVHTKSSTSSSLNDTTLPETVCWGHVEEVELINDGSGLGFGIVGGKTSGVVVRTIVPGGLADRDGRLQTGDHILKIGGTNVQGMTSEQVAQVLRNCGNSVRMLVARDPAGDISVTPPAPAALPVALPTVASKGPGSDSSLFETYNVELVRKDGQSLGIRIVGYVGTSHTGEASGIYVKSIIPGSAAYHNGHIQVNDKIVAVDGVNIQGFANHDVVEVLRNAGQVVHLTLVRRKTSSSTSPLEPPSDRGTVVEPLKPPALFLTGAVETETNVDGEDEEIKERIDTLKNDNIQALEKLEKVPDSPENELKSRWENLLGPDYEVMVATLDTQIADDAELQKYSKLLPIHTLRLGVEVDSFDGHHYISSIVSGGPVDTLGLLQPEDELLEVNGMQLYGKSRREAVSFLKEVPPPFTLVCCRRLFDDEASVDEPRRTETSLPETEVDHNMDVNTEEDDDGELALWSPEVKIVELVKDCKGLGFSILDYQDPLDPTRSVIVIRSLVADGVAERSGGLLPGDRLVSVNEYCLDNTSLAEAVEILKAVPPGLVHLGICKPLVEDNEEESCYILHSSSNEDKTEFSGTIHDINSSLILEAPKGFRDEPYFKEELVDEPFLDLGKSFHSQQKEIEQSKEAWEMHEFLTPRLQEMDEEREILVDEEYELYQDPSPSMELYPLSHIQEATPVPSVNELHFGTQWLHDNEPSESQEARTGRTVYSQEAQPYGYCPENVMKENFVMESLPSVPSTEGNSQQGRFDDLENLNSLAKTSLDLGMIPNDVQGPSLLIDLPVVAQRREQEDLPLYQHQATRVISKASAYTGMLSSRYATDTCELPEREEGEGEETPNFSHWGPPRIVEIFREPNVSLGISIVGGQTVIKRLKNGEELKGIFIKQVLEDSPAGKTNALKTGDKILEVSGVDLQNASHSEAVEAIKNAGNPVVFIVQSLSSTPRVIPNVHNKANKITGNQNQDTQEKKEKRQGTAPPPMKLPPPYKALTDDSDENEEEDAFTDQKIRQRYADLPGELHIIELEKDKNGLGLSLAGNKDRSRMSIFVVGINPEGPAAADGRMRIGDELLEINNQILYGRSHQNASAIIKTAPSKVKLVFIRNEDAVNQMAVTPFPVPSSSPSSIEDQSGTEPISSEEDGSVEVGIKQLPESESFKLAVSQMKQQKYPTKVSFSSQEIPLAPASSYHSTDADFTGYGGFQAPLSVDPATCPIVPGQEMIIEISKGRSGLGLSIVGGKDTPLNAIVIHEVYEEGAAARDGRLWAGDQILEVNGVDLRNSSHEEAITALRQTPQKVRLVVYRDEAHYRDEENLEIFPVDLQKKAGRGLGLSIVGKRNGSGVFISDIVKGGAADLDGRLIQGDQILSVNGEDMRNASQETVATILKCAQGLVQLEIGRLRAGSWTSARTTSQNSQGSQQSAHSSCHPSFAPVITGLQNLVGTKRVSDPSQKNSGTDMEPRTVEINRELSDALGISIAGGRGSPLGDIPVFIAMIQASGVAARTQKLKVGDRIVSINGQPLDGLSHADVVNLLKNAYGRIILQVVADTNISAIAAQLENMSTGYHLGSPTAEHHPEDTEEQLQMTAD

[21] = test system: INADL-9; assay: Holdup assay, INADL-9; format: binding, human
[22] = test system: LIN7C-1; assay: Holdup assay, LIN7C-1; format: binding, human
[23] = target: T7, LNX1-2 (Homo sapiens, UniProt Q8TBB1); assay: Holdup assay, LNX1-2; format: binding
T7 sequence (Q8TBB1 385-467): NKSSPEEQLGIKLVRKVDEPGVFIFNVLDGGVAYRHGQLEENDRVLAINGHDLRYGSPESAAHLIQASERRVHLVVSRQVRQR

[24] = test system: MAGI2-1; assay: Holdup assay, MAGI2-1; format: binding, human
[25] = test system: MAGIX-1; assay: Holdup assay, MAGIX-1; format: binding, human

## CC[C@H](C)[C@H](NC(=O)[C@H](CCC(N)=O)NC(=O)[C@@H](NC(=O)[C@H](Cc1c[nH]cn1)NC(=O)[C@H](CCC(N)=O)NC(=O)[C@H](CC(=O)O)NC(=O)[C@H](CCC(=O)O)NC(=O)[C@H](CC(=O)O)NC(=O)[C@H](Cc1ccccc1)NC(=O)[C@@H]1CCCN1C(=O)CCC(=O)NCCCOCCOCCOCCCNC(=O)CCCC[C@@H]1SC[C@@H]2NC(=O)N[C@@H]21)[C@@H](C)O)C(=O)N[C@H](C(=O)N[C@@H](CCCCN)C(=O)N[C@H](C(=O)O)C(C)C)[C@@H](C)O [PTEN_13] ({X1-Suc}-PFDEDQHTQITKV-OH)
[1]
  Kd: 7.64 µM
[2]
  BI: 0.11
[3]
  BI: 0.117
[4]; PARD3 PDZ 3, singlicate, BI converted to KD, tag-PDZ 4 μM, 15 min, nd: not detected in the holdup assay
  KD (affinity measured by holdup): 96 µM
[4]; PDZ domain PARD3-3
  BI: 0.051
[5]
  Kd: 5.58 µM
[5]; PDZ domain SNX27-1
  BI: 0.717
[6]
  BI: 0.114
[7]
  BI: -0.033
[8]
  BI: -0.03
[9]
  BI: -0.004
  LogKD: 3.826
[10]
  BI: 0.002
[11]
  BI: -0.07
[12]
  BI: -0.039
[13]
  BI: -0.085
[14]
  BI: -0.039
[15]
  BI: -0.097
[16]
  BI: 0.018
[17]
  BI: -0.025
[18]
  BI: 0.043
[19]
  BI: 0.031
[20]
  BI: 0.247
  Kd: 48.8 µM
[21]
  BI: -0.062
[22]
  BI: -0.105
[23]
  BI: 0.44
  Kd: 19.4 µM
[24]
  BI: -0.114
[25]
  BI: 0.049
